Consider one compound from the NIST ThermoML archive (doi:10.1016/j.fluid.2011.01.021).

In general, mass density refers to the mass of a sample divided by its volume. For orientation: refractive index means a measure of how strongly the sample bends light.

Numbers after ± are expanded uncertainties.

The conditions of data set [1]: 298.15 K; 101.33 kPa; Liquid; Vibrating tube method.
A short description of data set [2]: refractive index (Na D-line) (dimensionless). The following applies: 298.15 K; 101.33 kPa; Liquid; Standard Abbe refractometry.

In the case of `CCOS(=O)(=O)[O-].CCn1cc[n+](C)c1` [1-ethyl-3-methylimidazolium ethyl sulfate], the mass density in data set [1] stood at 1237.23 ± 0.43 kg/m3. Further, the refractive index in data set [2] was found to be 1.4791 ± 0.0007.
